Test results reported in patent US8329726B2, “Inhibitors of VEGF receptor and HGF receptor signaling” (MethylGene Inc., priority 2005, dated 2012).

Tests used:
[1] = tested on: DU145; assay: DU145 scattering inhibition (HGF dependent scattering); assay type: cell-based; details: Homo sapiens, DU-145; HGF dependent scattering, DU145 cells; read-out: DU145 SCATTERING INHIB IC50
Source text: (§1) HGF has well known activity in terms of inducing scattering and migration (wound healing) (Wells et al., Cell Motil Cytoskeleton. 2005 November 62(3):180-94; Miura et al., Urology 2001 December 58(6):1064-9; Nishimura et al., Int J Urol. 1998 May 5(3):276-81; Wang et al., Mol Cancer Ther. 2003 November; 2(11):1085-92; and Christensen et al., Cancer Res. 2003 Nov. 1; 63(21):7345-55).

[2] = target: T1, recombinant human c-Met/HGF receptor (Homo sapiens, UniProt P08581); assay: In vitro receptor tyrosine kinase assay (DELFIA), c-Met/HGF receptor; assay type: biochemical; details: read-out: CMET IC50
T1 construct: His tag (pBlueBacHis2A vector); made in house; host or cells: Hi-5 cells (Trichoplusia ni), baculovirus
T1 sequence (P08581 1078-1337): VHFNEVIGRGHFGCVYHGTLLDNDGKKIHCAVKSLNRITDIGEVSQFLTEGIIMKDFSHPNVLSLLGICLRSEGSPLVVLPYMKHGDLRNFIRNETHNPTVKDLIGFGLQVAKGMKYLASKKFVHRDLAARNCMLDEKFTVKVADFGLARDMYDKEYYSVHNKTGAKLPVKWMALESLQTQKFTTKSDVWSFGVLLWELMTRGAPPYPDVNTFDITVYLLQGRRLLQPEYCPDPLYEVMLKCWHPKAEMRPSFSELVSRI
Description: Cell pellets were frozen at −80° C. until purification was performed.
The coated plates were washed and stored at 4° C. […] After incubation, the kinase reactions were quenched with EDTA and the plates were washed.

[3] = tested on: A549; assay: A549 wound healing inhibition (HGF dependent migration); assay type: cell-based; details: Homo sapiens, A549 cells, read-out: A549 WOUND HEALING INHIB IC50
Source text: as §1

[4] = target: T2, VEGF receptor KDR (Homo sapiens, UniProt P35968); assay: In vitro receptor tyrosine kinase assay (DELFIA), VEGF receptor KDR; assay type: biochemical; details: read-out: VEGFR IC50
T2 construct: made in house; host or cells: Sf9 cells (Spodoptera frugiperda), baculovirus
T2 sequence (P35968 806-1356): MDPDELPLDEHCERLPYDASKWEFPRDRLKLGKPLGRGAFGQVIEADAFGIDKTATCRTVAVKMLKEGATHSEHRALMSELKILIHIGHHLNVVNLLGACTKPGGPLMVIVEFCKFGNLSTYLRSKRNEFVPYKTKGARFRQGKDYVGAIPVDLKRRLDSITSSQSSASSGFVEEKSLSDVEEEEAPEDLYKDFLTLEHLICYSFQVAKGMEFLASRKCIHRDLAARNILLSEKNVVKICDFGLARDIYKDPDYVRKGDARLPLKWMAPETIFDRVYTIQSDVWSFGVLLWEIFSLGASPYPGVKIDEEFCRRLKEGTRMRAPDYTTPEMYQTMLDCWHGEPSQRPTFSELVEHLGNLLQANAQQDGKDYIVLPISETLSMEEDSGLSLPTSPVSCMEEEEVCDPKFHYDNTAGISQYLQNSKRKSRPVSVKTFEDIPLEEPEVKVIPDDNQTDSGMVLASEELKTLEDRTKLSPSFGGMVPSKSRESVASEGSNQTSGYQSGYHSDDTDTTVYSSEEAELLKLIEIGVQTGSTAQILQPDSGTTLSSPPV

Structure (SMILES) | IC50 [1] [µM] | IC50 [2] [µM] | IC50 [3] [µM] | IC50 [4] [µM]
CN1CC=C(c2cc3nccc(Oc4ccc(NC(=O)N5CCN(c6ccccc6)C5=O)cc4F)c3s2)CC1 | < 1 | < 0.05 | < 1 | 0.05 to 0.25
CC(C)N(C(=O)CC(=O)Nc1ccc(Oc2ccnc3cc(C4=CCN(C)CC4)sc23)c(F)c1)c1ccccc1 | > 10 | 0.25 to 0.5 | > 10 | > 0.5
O=C(Nc1ccc(Oc2ccnc3cc(-c4cn(CCN5CCCC5)cn4)sc23)c(F)c1)N1CCN(c2ccccc2)C1=O | < 1 | < 0.05 | < 1 | < 0.05
CCn1cnc(-c2cc3nccc(Oc4ccc(NC(=O)CC(=O)Nc5ccccc5)cc4F)c3s2)c1C | < 1 | < 0.05 | < 1 | < 0.05
CNC(=O)N1CCN(Cc2ccc(-c3cc4nccc(Oc5ccc(NC(=O)N6CCN(c7ccccc7)C6=O)cc5F)c4s3)cc2)CC1 | < 1 | < 0.05 | < 1 | < 0.05
CCn1cnc(-c2cc3nccc(Oc4ccc(NC(=O)CC(=O)N5CCc6ccccc65)cc4F)c3s2)c1 | < 1 | < 0.05 | < 1 | < 0.05
CN(C)CCCN(C)Cc1ccc(-c2cc3nccc(Oc4ccc(NC(=O)CC(=O)N(C)c5ccccc5)cc4F)c3s2)cc1 | < 1 | < 0.05 | < 1 | < 0.05
Cn1cnc(-c2cc3nccc(Oc4ccc(NC(=O)N5CCN(c6ccccc6)C5=S)cc4F)c3s2)c1 | > 10 | > 0.5 | > 10 | > 0.5
CCN(C(=O)CC(=O)Nc1ccc(Oc2ccnc3cc(-c4cn(CC)cn4)sc23)c(F)c1)c1ccccc1 | 1 to 5 | 0.05 to 0.25 | 1 to 5 | < 0.05
CN1CCN(Cc2ccc(-c3cc4ncnc(Oc5ccc(NC(=O)CC(=O)Nc6ccccc6)cc5F)c4s3)cc2)CC1 | 1 to 5 | 0.05 to 0.25 | > 10 | < 0.05
COc1ccccc1NC(=O)C1(C(=O)Nc2ccc(Oc3ccnc4cc(-c5cn(CCN6CCCC6)cn5)sc34)c(F)c2)CC1 | < 1 | < 0.05 | < 1 | < 0.05
CN(c1ccc(NC(=O)C2(C(=O)Nc3ccccc3)CC2)cc1F)c1ccnc2ccsc12 | 1 to 5 | 0.25 to 0.5 | 1 to 5 | > 0.5
CC(C(=O)Nc1ccccc1)C(=O)Nc1ccc(Oc2ccnc3cc(-c4nccn4C)sc23)c(F)c1 (stereo not drawn) [drawing 286] | 1 to 5 | 0.05 to 0.25 | 1 to 5 | < 0.05
CCn1cnc(-c2cc3nccc(Oc4ccc(NC(=O)CC(Nc5ccccc5)C(F)(F)F)cc4F)c3s2)c1 (stereo not drawn) | 1 to 5 | 0.05 to 0.25 | 1 to 5 | 0.05 to 0.25
Cn1cnc(-c2cc3nccc(Oc4ccc(NC(CC(=O)Nc5ccc(F)cc5)C(F)(F)F)cc4)c3s2)c1 (stereo not drawn) | 1 to 5 | 0.05 to 0.25 | 1 to 5 | < 0.05
CNCCn1cnc(-c2cc3nccc(Oc4ccc(NC(=O)CC(=O)Nc5ccccc5OC)cc4F)c3s2)c1 | 1 to 5 | 0.05 to 0.25 | 1 to 5 | < 0.05
CC(C)n1cnc(-c2cc3nccc(Oc4ccc(NC(=O)CC(=O)Nc5ccccc5F)cc4F)c3s2)c1 | < 1 | < 0.05 | 1 to 5 | < 0.05

Structure (SMILES) | IC50 [1] [µM] | IC50 [2] [µM] | IC50 [3] [µM] | IC50 [4] [µM]
O=C(CC(=O)Nc1ccc(Oc2ccnc3cc(-c4ccc(CN5CCNCC5)cc4)sc23)c(F)c1)Nc1ccccc1 | < 1 | < 0.05 | 1 to 5 | < 0.05
CCn1cnc(-c2cc3nccc(Oc4ccc(NC(=O)CC(=O)N(C)c5ccccc5)cc4F)c3s2)c1 | < 1 | < 0.05 | < 1 | < 0.05
CCn1cnc(-c2cc3nccc(Oc4ccc(NC(=O)C5(C(=O)Nc6ccccc6OC)CC5)cc4F)c3s2)c1 | < 1 | < 0.05 | < 1 | < 0.05
CN1CCN(CCN(C)Cc2ccc(-c3cc4nccc(Oc5ccc(NC(=O)CC(=O)N(C)c6ccc(F)cc6)cc5F)c4s3)cc2)CC1 | < 1 | < 0.05 | 1 to 5 | < 0.05
CN1CCN(Cc2ccc(-c3cc4nccc(Oc5ccc(NC(=O)CC(=O)Nc6ccccc6)cc5F)c4s3)nc2)CC1 | < 1 | < 0.05 | 1 to 5 | < 0.05
O=C(CC(=O)Nc1ccc(Oc2ccnc3cc(-c4cccc[n+]4[O-])sc23)c(F)c1)Nc1ccccc1 | < 1 | < 0.05 | < 1 | < 0.05
CN1CCN(Cc2ccc(-c3cc4nccc(Oc5ccc(NC(=O)N6CCN(c7ccccc7)C6=O)cc5F)c4s3)cc2)CC1 | < 1 | < 0.05 | < 1 | < 0.05
O=C(CC(=O)Nc1ccc(Oc2ccnc3cc(-c4cn(CCO)cn4)sc23)c(F)c1)Nc1ccccc1 | < 1 | < 0.05 | < 1 | < 0.05
Cn1cnc(-c2cc3nccc(Oc4ccc(NC(=O)N5CCN(N6CCCCC6)C5=O)cc4F)c3s2)c1 | < 1 | < 0.05 | 1 to 5 | 0.05 to 0.25
COCn1cnc(-c2cc3nccc(Oc4ccc(NC(=O)CC(=O)Nc5ccccc5OC)cc4F)c3s2)c1 | < 1 | 0.05 to 0.25 | 1 to 5 | < 0.05
Cn1ccnc1-c1cc2nccc(Oc3ccc(NC(=O)CC(=O)OC4CCNCC4)cc3F)c2s1 | > 10 | > 0.5 | > 10 | > 0.5
COc1ccccc1NC(=O)CC(=O)Nc1ccc(Oc2ccnc3cc(-c4cccc(CN5CCOCC5)c4)sc23)c(F)c1 | 1 to 5 | 0.05 to 0.25 | > 10 | 0.05 to 0.25
CCn1cnc(-c2cc3nccc(Oc4ccc(NC(=O)N5CCN(c6ccccc6)C5=O)cc4F)c3s2)c1 | < 1 | < 0.05 | < 1 | < 0.05
CN1CC=C(c2cc3nccc(Oc4ccc(NC(=O)CC(=O)N(C)c5ccccc5)cc4F)c3s2)CC1 | 1 to 5 | < 0.05 | 1 to 5 | 0.05 to 0.25
O=C(CC(=O)Nc1ccccc1F)Nc1ccc(Oc2ccnc3cc(-c4cccc(CN5CCOCC5)c4)sc23)c(F)c1 | 1 to 5 | < 0.05 | 1 to 5 | 0.05 to 0.25
CCn1cnc(-c2cc3nccc(Oc4ccc(NC(=O)C5CCN(c6ccccc6)C5=O)cc4F)c3s2)c1 (stereo not drawn) | < 1 | < 0.05 | < 1 | < 0.05
